We go through 1 compound from patent publication US11666619B2, “Composition for treating atopic dermatitis including herbal medicine mixed extract” (University—Industry Cooperation Group of Kyung Hee …, priority 2016, dated 2023).

For one test, the system named is white blood cells (WBCs). Briefly: Number of white blood cells in blood of DNCB-treated mice (hematology analyzer). The format is in vivo, mouse. Conditions: FIG. 5. On the procedure: High levels of white blood cells (WBCs) are observed in most atopic dermatitis patients. Therefore, to examine therapeutic effects of KAJD on atopic dermatitis, the number of WBCs in the blood of mice was analyzed after treatment with KAJD. In detail, whole blood samples were collected from the heart of a mouse, and stored in a Vacutainer™ tube containing EDTA (BD Science, NJ, USA). The number of WBCs, lymphocytes, monocytes, eosinophils, basophils, or neutrophils was analyzed using a HEMAVET 950 hematology analyzer (Drew Scientific, Inc., Oxford, USA).

For another test, the system named is BALB/c mouse. Briefly: DNCB-induced AD-like skin lesions in BALB/c mouse: clinical signs, skin thickness, spleen weight, body weight. It counts as in vivo. The note with it: DNCB-treated BALB/c mice. An excerpt: To examine effects of KAJD on atopic dermatitis (AD), DNCB (2,4-dinitrochlorobenzene) was applied to the skin of a BALB/c mouse to induce AD-like symptoms. In many studies regarding atopic dermatitis, models in which atopy-like dermatitis was induced using chemical antigens such as DNCB, 2,4-dinitrofluorobenzene, 2,4,6-trinitrothlorobenzene, etc. are used ([…]. et al, Immunology, 1995, 86, 545-550). In detail, 6-week-old BALB/c mice (20±2 g) were used, which were purchased from Orient Inc. (Seongnam, Korea). Mice were randomly divided into control groups or experimental groups (no treatment, DNCB, DNCB+tacrolimus, DNCB+KAJD), each group including five mice. All mice were raised under a pathogen-free environment with free access to sterile distilled water and solid feed. All mouse experiments were approved by the Experimental Animal Ethics Committee of Kyung Hee University (Approval Number: KHUASP (SE)-14-014). To induce AD-like skin lesions, the dorsal skin of the mouse was shaved, and 100 μL of 2% DNCB was applied thereto using a patch of 1 cm×1 cm twice a week. KAJD or tacrolimus, which is an existing therapeutic agent for AD, was periodically applied to the DNCB-applied skin for 2 weeks. At 28 days, all mice were sacrificed by CO2 inhalation. To examine changes in the skin of the BALB/c mouse by KAJD, clinical signs were observed once a week for 4 weeks. Severities of AD-like lesions in the dorsal skin, which are indicated by erythema/bleeding, edema, exfoliation/dryness, and excoriation/erosion, were scored according to a scale of 0 to 3 (0: absent, 1: mild, 2: moderate, 3: severe). Individual scores were added, and clinical skin scores were defined according to a scale of 0 to 12.

Test [1] has as its system serum IgE and inflammatory cytokines. The experiment in a line: Serum IgE and inflammatory cytokines in DNCB-treated mice (sandwich ELISA). The format is in vivo, mouse. The note with it: FIG. 6. On the procedure:
One of the features of AD is high expression levels of blood IgE and inflammatory cytokines. Therefore, to analyze a mechanism of anti-inflammatory activity of KAJD, levels of blood IgE and inflammatory cytokines in DNCB-treated mice were analyzed. In detail, expression levels were analyzed by sandwich ELISA using a BD PharMingen mouse or human ELISA set (Pharmingen, San Diego, Calif., USA). A plate was coated with a capture antibody contained in an ELISA coating buffer (Sigma, St. Louis, Mo., USA), and stored at 4° C. for one day. The plate was washed with 0.05% PBS-Tween 20, and subsequently, blocked with 10% FBS-containing PBS at 20° C. for 1 hour. A standard antigen or sample serially diluted with a dilution buffer (10% FBS-containing PBS) was put in the plate, followed by incubation at 20° C. for 1 hour. Thereafter, biotin-conjugated anti-mouse IgE and SAv-HRP (streptavidin-horseradish peroxidase conjugate) was added to the plate, followed by incubation at 20° C. for 1 hour. Lastly, a TMB (tetramethylbenzidine) substrate solution was added to the plate, and incubated under dark conditions for 15 minutes, and then the reaction was terminated with a 2 N H2SO4 solution. Optical density was measured using an ELISA reader (Versa Max, Molecular Devices, CA, USA) at 450 nm.

As to `C=CC[C@@H]1/C=C(\C)C[C@H](C)C[C@H](OC)[C@H]2O[C@@](O)(C(=O)C(=O)N3CCCC[C@H]3C(=O)O[C@H](/C(C)=C/[C@@H]3CC[C@@H](O)[C@H](OC)C3)[C@H](C)[C@@H](O)CC1=O)[C@H](C)C[C@@H]2OC` [tacrolimus], in the test on white blood cells (WBCs), the “number of WBC subtypes including lymphocytes, monocytes, eosinophils, basophils, and neutrophils” value is reported as “decrease the number of WBC subtypes”; the “number of white blood cells” value is listed as “considerably decrease”. For the same compound, the “scleroderma (thickness of the dorsal skin)” value with BALB/c mouse (FIG. 2C) is “remarkably decrease”. The spleen weight result in the test with BALB/c mouse (FIG. 2D) was “remarkably decrease”. Also, in the test with BALB/c mouse (topical application, FIG. 2A), the “severe symptoms of the skin (erythema/bleeding, edema, exfoliation/dryness, excoriation/erosion)” value is reported as “remarkably reduce severe symptoms of the skin”. In addition, the “clinical score (severity score of AD-induced skin lesions)” value in the test on BALB/c mouse (scale of 0 to 12, applied to DNCB-applied skin for 2 weeks, FIG. 2B) was determined as 3.29±0.76. Moreover, in test [1], the “serum IgE” value was “considerably inhibit” and the “serum inflammatory cytokines (IL-6, IL-10, IL-12)” value is on record as “considerably inhibit”.
